Test results as given in patent US5298494A, “Monosaccharides having anti-proliferation and anti-inflammatory activity, compositions and uses thereof” (Greenwich Pharmaceuticals Incorporated, priority 1993, dated 1994).
Where two headings read alike, the source gives them in different places.

Columns and labels:
[1] = tested on: T cell proliferation in mouse spleen cell mixed lymphocyte cultures; assay: Mixed Lymphocyte Reaction (MLR) assay; format: cell-based, mouse (Balb/c responder, C57B1/6 stimulator); conditions: for inhibition at 3 µM / inhibition at 10 µM / inhibition at 30 µM / inhibition at 100 µM / inhibition at 300 µM: Mus musculus, Lymphocyte, read-out: % Change From Control, MLR
Summary of the method: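 Balb/c responder spleen cells (2.5×10^5) co-cultured with mitomycin C-treated C57Bl/6 stimulators (5×10^5) for 5 days at 37 C with compound dilutions of 3–300 uM or DMSO. Proliferation read by MTT (OD 570-650 nm). Allogeneic minus syngeneic means were expressed as % change from vehicle control.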

[2] = tested on: T lymphocytes (normal mouse spleen cells) stimulated with ConA; assay: Mouse Spleen Cell ConA Blastogenesis Assay; format: cell-based, mouse (C57Bl/6); conditions: for inhibition at 1 µg/mL / inhibition at 10 µg/mL / inhibition at 25 µg/mL / inhibition at 100 µg/mL / inhibition at 300 µg/mL / inhibition at 750 µg/mL / inhibition at 2.5 µg/mL: Mus musculus, T-lymphocyte, read-out: % change from control, ConA blastogenic response; for inhibition at 2.5 µg/mL: compound 2.5 ug/ml; for strong antiproliferative effect on ConA blastogenic response: concentration not given
[3] = ConA 1 ug/ml, compound 10 ug/ml
[4] = ConA 1 ug/ml, compound 25 ug/ml
[5] = ConA 1 ug/ml, compound 100 ug/ml
[6] = ConA 1 ug/ml, compound 300 ug/ml
[7] = ConA 1 ug/ml, compound 750 ug/ml
[8] = ConA 4 ug/ml, compound 10 ug/ml
[9] = ConA 4 ug/ml, compound 25 ug/ml
[10] = ConA 4 ug/ml, compound 100 ug/ml
[11] = ConA 4 ug/ml, compound 300 ug/ml
[12] = ConA 4 ug/ml, compound 750 ug/ml

## CCCCCCCOCCCO[C@@H]1[C@H]2OC(C)(C)O[C@H]2O[C@@H]1[C@H](O)CO [IIg]
[1]; Table X, 3 ugm
  % Change From Control, MLR: -61%
[1]; Table X, 10 ugm
  % Change From Control, MLR: -15%
  Mean O.D. Allogenic: 0.197 O.D.
  Mean O.D. Syngeneic: 0.070 O.D.
[1]; Table X, 30 ugm
  % Change From Control, MLR: -36%
  Mean O.D. Allogenic: 0.171 O.D.
  Mean O.D. Syngeneic: 0.075 O.D.
[1]; Table X, 100 ugm
  % Change From Control, MLR: -101%
[1]; Table X, 300 ugm
  % Change From Control, MLR: -97%
[1]; several concentrations
  strong non-dose dependent inhibition in MLR: greater than -50 % of control
[2]; ConA 1 ug/ml, compound 1 ug/ml
  Blastogenic response of normal spleen cells to Con-A: 91,958 ± 15,723 cpm
  inhibition at 1 µg/mL: -27%
[2]; [3]
  Blastogenic response of normal spleen cells to Con-A: 100,734 ± 25,985 cpm
  inhibition at 10 µg/mL: -39%
[2]; [4]
  Blastogenic response of normal spleen cells to Con-A: 108,874 ± 15,534 cpm
  inhibition at 25 µg/mL: -51%
[2]; [5]
  % change from control, ConA blastogenic response: -67%
  Blastogenic response of normal spleen cells to Con-A: 23,806 ± 1,727 cpm
  inhibition at 100 µg/mL: 67%
[2]; [6]
  % change from control, ConA blastogenic response: -84%
  Blastogenic response of normal spleen cells to Con-A: 11,212 ± 15,288 cpm
  inhibition at 300 µg/mL: 84%
[2]; [7]
  % change from control, ConA blastogenic response: -82%
  Blastogenic response of normal spleen cells to Con-A: 12,807 ± 9,049 cpm
  inhibition at 750 µg/mL: 82%
[2]; ConA 4 ug/ml, compound 1 ug/ml
  Blastogenic response of normal spleen cells to Con-A: 174,764 × 10^3 cpm
  inhibition at 1 µg/mL: -80%
[2]; [8]
  Blastogenic response of normal spleen cells to Con-A: 168,131 ± 14,911 cpm
  inhibition at 10 µg/mL: -73%
[2]; [9]
  Blastogenic response of normal spleen cells to Con-A: 216,784 ± 27,862 cpm
  inhibition at 25 µg/mL: -123%
[2]; [10]
  Blastogenic response of normal spleen cells to Con-A: 31,073 ± 10,784 cpm
[2]; [11]
  % change from control, ConA blastogenic response: -91%
  Blastogenic response of normal spleen cells to Con-A: 8,268 ± 322 × 10^3 cpm
  inhibition at 300 µg/mL: 91%
[2]; [12]
  % change from control, ConA blastogenic response: -79%
  Blastogenic response of normal spleen cells to Con-A: 20,265 ± 12,455 cpm
  inhibition at 750 µg/mL: 79%

## CN1CCCC1CCNC[C@H]1OC(C)(C)O[C@@H]2[C@H]3OC(C)(C)O[C@H]3O[C@@H]21 (stereo partly shown) [IIIi]
[1]
  effect on MLR in words: strong non dose dependent inhibition of T lymphocyte proliferation
[1]; 3 um
  Mean O.D. Allogenic: 0.128 O.D.
  Mean O.D. Syngeneic: 0.090 O.D.
  inhibition at 3 µM: 15%
[1]; 10 um
  Mean O.D. Allogenic: 0.180 O.D.
  Mean O.D. Syngeneic: 0.102 O.D.
  inhibition at 10 µM: 48%
[1]; 30 um
  Mean O.D. Allogenic: 0.165 O.D.
  Mean O.D. Syngeneic: 0.078 O.D.
  inhibition at 30 µM: 42%
[1]; 100 um
  Mean O.D. Allogenic: 0.095 O.D.
  Mean O.D. Syngeneic: 0.066 O.D.
  inhibition at 100 µM: 81%
[1]; 300 um
  Mean O.D. Allogenic: 0.019 O.D.
  Mean O.D. Syngeneic: 0.030 O.D.
  inhibition at 300 µM: 107%
[2]; ConA 1 ug/ml, compound 1 ug/ml
  inhibition at 1 µg/mL: -25%
[2]; ConA 1 ug/ml
  inhibition at 2.5 µg/mL: -16%
[2]; [3]
  inhibition at 10 µg/mL: -10%
[2]; [4]
  inhibition at 25 µg/mL: 23%
[2]; [5]
  inhibition at 100 µg/mL: 91%
[2]; ConA 4 ug/ml, compound 1 ug/ml
  inhibition at 1 µg/mL: 9%
[2]; ConA 4 ug/ml
  inhibition at 2.5 µg/mL: 14%
[2]; [8]
  inhibition at 10 µg/mL: 9%
[2]; [9]
  inhibition at 25 µg/mL: 50%
[2]; [10]
  inhibition at 100 µg/mL: 95%
[2]
  strong antiproliferative effect on ConA blastogenic response: greater than -50 % of control

## CC1(C)OC2OC(C(O)COCCCc3ccccc3)C(O)C2O1 [IIIe, 1,2-O-Isopropylidene-6-O-3'-(phenylpropyl)-α-D-glucofuranose]
[1]; 3 um
  Mean O.D. Allogenic: 0.174 O.D.
  Mean O.D. Syngeneic: 0.052 O.D.
  inhibition at 3 µM: 19%
[1]; 10 um
  Mean O.D. Allogenic: 0.122 O.D.
  Mean O.D. Syngeneic: 0.081 O.D.
  inhibition at 10 µM: 73%
[1]; 30 um
  Mean O.D. Allogenic: 0.084 O.D.
  Mean O.D. Syngeneic: 0.066 O.D.
  inhibition at 30 µM: 88%
[1]; 100 um
  Mean O.D. Allogenic: 0.034 O.D.
  Mean O.D. Syngeneic: 0.024 O.D.
  inhibition at 100 µM: 93%
[1]; 300 um
  Mean O.D. Allogenic: 0.009 O.D.
  Mean O.D. Syngeneic: 0.010 O.D.
  inhibition at 300 µM: 101%
[2]; ConA 1 ug/ml, compound 1 ug/ml
  inhibition at 1 µg/mL: 78%
[2]; ConA 1 ug/ml
  inhibition at 2.5 µg/mL: 94%
[2]; [3]
  inhibition at 10 µg/mL: 98%
[2]; [4]
  inhibition at 25 µg/mL: 99%
[2]; [5]
  inhibition at 100 µg/mL: 99%
[2]; ConA 4 ug/ml, compound 1 ug/ml
  inhibition at 1 µg/mL: 76%
[2]; ConA 4 ug/ml
  inhibition at 2.5 µg/mL: 91%
[2]; [8]
  inhibition at 10 µg/mL: 97%
[2]; [9]
  inhibition at 25 µg/mL: 99%
[2]; [10]
  inhibition at 100 µg/mL: 100%
[2]
  strong antiproliferative effect on ConA blastogenic response: greater than -50 % of control
